Results from patent publication US11666658B2, “Rifamycin analogs and antibody-drug conjugates thereof” (Regeneron Pharmaceuticals, Inc., priority 2018, dated 2023).
Values after ≈ are worked out from the molar mass of the structure shown.

Columns and labels:
[1] = tested on: intracellular S. aureus NRS384 in THP-1 macrophages; experiment: Intracellular killing assay 2 (rifamycin analogs, S. aureus in THP-1 macrophages); format: cell-based, Staphylococcus aureus; details: Staphylococcus aureus, NRS384, 2 h; lowest concentration giving intracellular S. aureus below limit of detection (50 cfu/mL) in THP-1 macrophages; median of at least two experiments; read-out: S. aureus Intracellular killing MIC
Experimental: THP-1 monocytic cell line was grown in media (RMPI+10% FBS+1% Penicillin/Streptomycin), then seeded at a density of 1e5 cells/well in a 96 well plate and differentiated into macrophages for three days prior to infection using 200 nM PMA. An overnight culture of S. aureus NRS384 was grown in RPMI, washed twice with PBS and resuspended at 1e7 cfu/mL in PBS. THP-1 were washed with warm media (RMPI without FBS) to remove the Penicillin/Streptomycin and then infected with the S. aureus suspension at a multiplicity of infection of 10:1 (S. aureus: macrophages). Plates were spun at 300×g for 5 minutes to synchronize adhesion of the bacteria, then incubated at 37° C. for 2 hours. Free-floating bacteria were removed by washing 2× with warm media and remaining extracellular S. aureus were killed by addition of media containing gentamicin (50 ug/mL). […] The compounds were added in media containing 50 µg/mL gentamicin to prevent extracellular growth of S. aureus. After 2 hours, plates were washed 2× with warm RPMI without FBS, and 100 ul of THP-1 lysis buffer (0.1% Triton in PBS) was added to each well. S. aureus survival was enumerated by colony forming units through serial dilution and plating onto TSA.
The intracellular MIC value indicated represents the median value of at least two independent experiments, unless indicated otherwise.

S. aureus NRS384 = experiment: Broth minimum inhibitory concentration (MIC) assay 2; format: cell-based, Staphylococcus aureus; details: Staphylococcus aureus; S. aureus NRS384 in TSB, 24 hours at 37° C., OD600; median of at least two independent experiments; read-out: S. aureus Broth MIC
Experimental: To test the potency of rifamycin analogs of the disclosure in vitro, a broth growth inhibition assay was developed. For the assay, S. aureus NRS384 was grown in Tryptic Soy Broth (TSB) overnight, then sub-cultured 1:50 in fresh TSB and grown for an additional two hours. The culture was then pelleted via centrifugation and washed twice in PBS. The culture was then diluted to 1×10^6 cfu/mL in TSB and 100 μL of the suspension was added per well to a 2 mL dilution plate in triplicate. […] The plates were sealed and incubated at 37° C. with shaking for 24 hours, then 150 μL of each sample was added to 96 well microtiter plates and the OD600 nm was read on a Spectramax i3 Minimax 300.
The broth MIC experiments were assessed in at least two independent experiments and the median value is captured below unless indicated otherwise.

SMILES	MIC [1] [µM]	MIC (S. aureus NRS384) [µM]
CO[C@H]1/C=C/O[C@@]2(C)Oc3c(C)c(O)c4c(=O)c(c5oc6cc(OCC7CCN(C)C7)cc(O)c6nc-5c4c3C2=O)NC(=O)/C(C)=C\C=C\[C@H](C)[C@H](O)[C@@H](C)[C@@H](O)[C@@H](C)[C@H](OC(C)=O)[C@@H]1C (stereo partly shown) [Analog 29a]	0.04 (≈ 0.0366 µg/mL)	0.00391 (≈ 0.00357 µg/mL)
CO[C@H]1/C=C/O[C@@]2(C)Oc3c(C)c(O)c4c(=O)c(c5oc6cc(OCC7CCN(C)CC7)cc(O)c6nc-5c4c3C2=O)NC(=O)/C(C)=C\C=C\[C@H](C)[C@H](O)[C@@H](C)[C@@H](O)[C@@H](C)[C@H](OC(C)=O)[C@@H]1C [Analog 29b]	0.04 (≈ 0.0371 µg/mL)	0.00391 (≈ 0.00363 µg/mL)
CO[C@H]1/C=C/O[C@@]2(C)Oc3c(C)c(O)c4c(=O)c(c5oc6cc(OCCN7CCCC7)cc(O)c6nc-5c4c3C2=O)NC(=O)/C(C)=C\C=C\[C@H](C)[C@H](O)[C@@H](C)[C@@H](O)[C@@H](C)[C@H](OC(C)=O)[C@@H]1C [Analog 29c]	0.04 (≈ 0.0366 µg/mL)	0.00391 (≈ 0.00357 µg/mL)
CO[C@H]1/C=C/O[C@@]2(C)Oc3c(C)c(O)c4c(=O)c(c5oc6cc(OCCN7CC8CCC7C8)cc(O)c6nc-5c4c3C2=O)NC(=O)/C(C)=C\C=C\[C@H](C)[C@H](O)[C@@H](C)[C@@H](O)[C@@H](C)[C@H](OC(C)=O)[C@@H]1C [Analog 29d]	0.04 (≈ 0.0376 µg/mL)	0.00391 (≈ 0.00368 µg/mL)
CO[C@H]1/C=C/O[C@@]2(C)Oc3c(C)c(O)c4c(=O)c(c5oc6cc(OCCN7CCN(C)CC7)cc(O)c6nc-5c4c3C2=O)NC(=O)/C(C)=C\C=C\[C@H](C)[C@H](O)[C@@H](C)[C@@H](O)[C@@H](C)[C@H](OC(C)=O)[C@@H]1C [Analog 29e]	0.04 (≈ 0.0377 µg/mL)	0.0156 (≈ 0.0147 µg/mL)
CO[C@H]1/C=C/O[C@@]2(C)Oc3c(C)c(O)c4c(=O)c(c5oc6cc(OCCOCCN(C)C)cc(O)c6nc-5c4c3C2=O)NC(=O)/C(C)=C\C=C\[C@H](C)[C@H](O)[C@@H](C)[C@@H](O)[C@@H](C)[C@H](OC(C)=O)[C@@H]1C [Analog 29f]	0.2 (≈ 0.186 µg/mL)	0.0156 (≈ 0.0145 µg/mL)
CO[C@H]1/C=C/O[C@@]2(C)Oc3c(C)c(O)c4c(=O)c(c5oc6cc(OCCN7CCOCC7)cc(O)c6nc-5c4c3C2=O)NC(=O)/C(C)=C\C=C\[C@H](C)[C@H](O)[C@@H](C)[C@@H](O)[C@@H](C)[C@H](OC(C)=O)[C@@H]1C [Analog 29g]	0.2 (≈ 0.186 µg/mL)	0.00391 (≈ 0.00364 µg/mL)
CO[C@H]1/C=C/O[C@@]2(C)Oc3c(C)c(O)c4c(=O)c(c5oc6cc(OCCN(C)c7ccccn7)cc(O)c6nc-5c4c3C2=O)NC(=O)/C(C)=C\C=C\[C@H](C)[C@H](O)[C@@H](C)[C@@H](O)[C@@H](C)[C@H](OC(C)=O)[C@@H]1C [Analog 29h]	1 (≈ 0.951 µg/mL)	0.0625 (≈ 0.0594 µg/mL)
CO[C@H]1/C=C/O[C@@]2(C)Oc3c(C)c(O)c4c(=O)c(c5oc6cc(OCCNC(C)=O)cc(O)c6nc-5c4c3C2=O)NC(=O)/C(C)=C\C=C\[C@H](C)[C@H](O)[C@@H](C)[C@@H](O)[C@@H](C)[C@H](OC(C)=O)[C@@H]1C [Analog 29i]	0.2 (≈ 0.18 µg/mL)	0.00244 (≈ 0.0022 µg/mL)
CO[C@H]1/C=C/O[C@@]2(C)Oc3c(C)c(O)c4c(=O)c(c5oc6cc(OCCN(C)C(C)=O)cc(O)c6nc-5c4c3C2=O)NC(=O)/C(C)=C\C=C\[C@H](C)[C@H](O)[C@@H](C)[C@@H](O)[C@@H](C)[C@H](OC(C)=O)[C@@H]1C [Analog 29j]	0.04 (≈ 0.0366 µg/mL)	0.000977 (≈ 0.000895 µg/mL)
CO[C@H]1/C=C/O[C@@]2(C)Oc3c(C)c(O)c4c(=O)c(c5oc6cc(O)cc(O)c6nc-5c4c3C2=O)NC(=O)/C(C)=C\C=C\[C@H](C)[C@H](O)[C@@H](C)[C@@H](O)[C@@H](C)[C@H](OC(C)=O)[C@@H]1C [Analog 29k]	> 1	0.0625 (≈ 0.0511 µg/mL)
CO[C@H]1/C=C/O[C@@]2(C)Oc3c(C)c(O)c4c(=O)c(c5oc6cc(OCCNCCN)ccc6nc-5c4c3C2=O)NC(=O)/C(C)=C\C=C\[C@H](C)[C@H](O)[C@@H](C)[C@@H](O)[C@@H](C)[C@H](OC(C)=O)[C@@H]1C [Analog 35]	> 1	0.25 (≈ 0.222 µg/mL)
CO[C@H]1/C=C/O[C@@]2(C)Oc3c(C)c(O)c4c(=O)c(c5oc6ccc(OCCN(C)C)cc6nc-5c4c3C2=O)NC(=O)/C(C)=C\C=C\[C@H](C)[C@H](O)[C@@H](C)[C@@H](O)[C@@H](C)[C@H](OC(C)=O)[C@@H]1C [Analog 38]	1 (≈ 0.872 µg/mL)	0.0625 (≈ 0.0545 µg/mL)
COc1cc(OCCN(C)C)cc2oc3c4c(=O)c5c(O)c(C)c6c(c5c-3nc12)C(=O)[C@@](C)(O/C=C/[C@H](OC)[C@@H](C)[C@@H](OC(C)=O)[C@H](C)[C@H](O)[C@H](C)[C@@H](O)[C@@H](C)/C=C/C=C(/C)C(=O)N4)O6 [Analog 43]	0.04 (≈ 0.0361 µg/mL)	0.00391 (≈ 0.00353 µg/mL)
CO[C@H]1/C=C/O[C@@]2(C)Oc3c(C)c(O)c4c(=O)c(c5oc6cc(OCCN(C)C)cc(Cl)c6nc-5c4c3C2=O)NC(=O)/C(C)=C\C=C\[C@H](C)[C@H](O)[C@@H](C)[C@@H](O)[C@@H](C)[C@H](OC(C)=O)[C@@H]1C [Analog 45]	1 (≈ 0.906 µg/mL)	0.00391 (≈ 0.00354 µg/mL)
CO[C@H]1/C=C/O[C@@]2(C)Oc3c(C)c(O)c4c(=O)c(c5oc6cc(OCCN(C)C)c(Cl)cc6nc-5c4c3C2=O)NC(=O)/C(C)=C\C=C\[C@H](C)[C@H](O)[C@@H](C)[C@@H](O)[C@@H](C)[C@H](OC(C)=O)[C@@H]1C [Analog 48]	1 (≈ 0.906 µg/mL)	0.0156 (≈ 0.0141 µg/mL)
CCCCOc1cc(OCCN(C)C)cc2oc3c4c(=O)c5c(O)c(C)c6c(c5c-3nc12)C(=O)[C@@](C)(O/C=C/[C@H](OC)[C@@H](C)[C@@H](OC(C)=O)[C@H](C)[C@H](O)[C@H](C)[C@@H](O)[C@@H](C)/C=C/C=C(/C)C(=O)N4)O6 [Analog 50]	1 (≈ 0.944 µg/mL)	0.0156 (≈ 0.0147 µg/mL)
CO[C@H]1/C=C/O[C@@]2(C)Oc3c(C)c(O)c4c(=O)c(c5oc6cc(OCCN(C)C)cc(OCc7ccccc7)c6nc-5c4c3C2=O)NC(=O)/C(C)=C\C=C\[C@H](C)[C@H](O)[C@@H](C)[C@@H](O)[C@@H](C)[C@H](OC(C)=O)[C@@H]1C [Analog 52]	1 (≈ 0.978 µg/mL)	0.0625 (≈ 0.0611 µg/mL)
CO[C@H]1/C=C/O[C@@]2(C)Oc3c(C)c(O)c4c(=O)c(c5oc6cc(OCCN(C)C)cc(F)c6nc-5c4c3C2=O)NC(=O)/C(C)=C\C=C\[C@H](C)[C@H](O)[C@@H](C)[C@@H](O)[C@@H](C)[C@H](OC(C)=O)[C@@H]1C [Analog 55]	0.2 (≈ 0.178 µg/mL)	0.0156 (≈ 0.0139 µg/mL)
CO[C@H]1/C=C/O[C@@]2(C)Oc3c(C)c(O)c4c(=O)c(c5oc6cc(O)cc(F)c6nc-5c4c3C2=O)NC(=O)/C(C)=C\C=C\[C@H](C)[C@H](O)[C@@H](C)[C@@H](O)[C@@H](C)[C@H](OC(C)=O)[C@@H]1C [Analog 55a]	> 1	0.0625 (≈ 0.0512 µg/mL)
CO[C@H]1/C=C/O[C@@]2(C)Oc3c(C)c(O)c4c(=O)c(c5oc6cc(OCCN(C)C)cc(SC)c6nc-5c4c3C2=O)NC(=O)/C(C)=C\C=C\[C@H](C)[C@H](O)[C@@H](C)[C@@H](O)[C@@H](C)[C@H](OC(C)=O)[C@@H]1C [Analog 60]	0.2 (≈ 0.184 µg/mL)	0.00391 (≈ 0.00359 µg/mL)
CO[C@H]1/C=C/O[C@@]2(C)Oc3c(C)c(O)c4c(=O)c(c5oc6cc(OC7CCN(C)CC7)cc(O)c6nc-5c4c3C2=O)NC(=O)/C(C)=C\C=C\[C@H](C)[C@H](O)[C@@H](C)[C@@H](O)[C@@H](C)[C@H](OC(C)=O)[C@@H]1C [Analog 68]	0.2 (≈ 0.183 µg/mL)	0.0156 (≈ 0.0143 µg/mL)
CO[C@H]1/C=C/O[C@@]2(C)Oc3c(C)c(O)c4c(=O)c(c5oc6cccc(OCCN(C)C)c6nc-5c4c3C2=O)NC(=O)/C(C)=C\C=C\[C@H](C)[C@H](O)[C@@H](C)[C@@H](O)[C@@H](C)[C@H](OC(C)=O)[C@@H]1C [Analog 71]	> 1	0.0156 (≈ 0.0136 µg/mL)
